Experimental data reported in US11473089B2, “Aptamer for ADAMTS5 and use for aptamer for ADAMTS5” (RIBOMIC INC., priority 2017, dated 2022).

Tests used:
[1] = target: T1, ADAMTS5 (Homo sapiens, UniProt Q9UNA0); assay: ADAMTS5 enzyme inhibition, aggrecan G1-IGD-G2 cleavage, sandwich ELISA detection (evaluation method 2); assay type: biochemical; conditions: Table 6; 2 nM aptamer; 0.2 nM ADAMTS5, 400 nM substrate, 30 min
T1 construct: purchased R&D systems
T1 sequence (Q9UNA0 262-930): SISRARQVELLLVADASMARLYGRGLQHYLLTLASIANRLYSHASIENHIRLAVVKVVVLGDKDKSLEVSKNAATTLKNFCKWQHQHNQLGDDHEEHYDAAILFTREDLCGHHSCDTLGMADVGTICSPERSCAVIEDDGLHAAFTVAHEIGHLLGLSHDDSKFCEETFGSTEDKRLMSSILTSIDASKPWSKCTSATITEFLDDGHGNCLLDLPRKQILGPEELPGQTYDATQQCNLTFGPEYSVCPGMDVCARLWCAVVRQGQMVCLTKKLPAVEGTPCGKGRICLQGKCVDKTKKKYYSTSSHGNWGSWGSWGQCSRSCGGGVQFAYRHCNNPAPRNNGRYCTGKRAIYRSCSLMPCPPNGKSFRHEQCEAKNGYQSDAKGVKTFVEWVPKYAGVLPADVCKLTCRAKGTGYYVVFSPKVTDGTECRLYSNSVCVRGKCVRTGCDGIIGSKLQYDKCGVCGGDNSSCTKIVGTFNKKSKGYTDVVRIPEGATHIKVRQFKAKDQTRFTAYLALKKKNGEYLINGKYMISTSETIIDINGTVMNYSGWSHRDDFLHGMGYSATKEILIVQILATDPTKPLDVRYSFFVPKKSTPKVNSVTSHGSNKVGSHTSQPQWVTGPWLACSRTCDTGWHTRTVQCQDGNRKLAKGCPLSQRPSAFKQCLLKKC
Experimental: On the other hand, the aptamers having the sequences shown by the sequences of SEQ ID NOs: 11(34)-11(35) and SEQ ID NO: 15 were evaluated by the following method (evaluation method 2). The cleavage reaction of the substrate (aggrecan G1-IGD-G2) by ADAMTS5 was performed in the same manner as in Example 1 except the following points. The differences are that the final concentrations of ADAMTS5 and the substrate were respectively 0.2 nM and 400 nM (48 μg/mL), and that the enzyme reaction time was 30 min. After the reaction, the reaction was stopped by adding an excess amount of an ADAMTS5 small molecule inhibitor. The cleaved substrate was quantified by a sandwich ELISA method using two kinds of anti-aggrecan antibodies. […] Using this, the amount of cleaved substrate can be quantified. […] The inhibition rate of the test substance was calculated using the following equation. inhibition rate (%)=(PE−Papt)/(PE−P0)×100 wherein PE is the amount of a cleaved substrate with the addition of ADAMTS5, Papt is the amount of a cleaved substrate with the addition of a test substance, and P0 is the residual amount of a cleaved substrate without the addition of ADAMTS5.
The measurement results of the inhibitory activity of the aptamers having the sequences shown in SEQ ID NOs: 11(34)-11(35) and SEQ ID NO: 15 are shown in Table 6, evaluation method 2. […] “n.d.” means not determined. […]

[2] = tested on: HFLS-OA cells; assay: aggrecan cleavage inhibitory activity in synovial cells; assay type: cell-based, human; conditions: Table 11, culture supernatant after 3 days
Experimental: The aggrecan cleavage inhibitory activity of the aptamers shown in SEQ ID NOs: 11(34), 28(13), 28(15), 28(18) in synovial cells was measured. The measurement was performed by the following method. Synovial cells (HFLS-OA cells) (manufactured by Cell Applications) derived from human knee osteoarthritis patients were seeded at 2×10^4 cells per well, and cultured for 16-24 hr. The culture method followed the manual of Cell Applications. After culturing, the medium was removed, the cells were washed with Basal Medium (manufactured by Cell Applications), and 500 ng of aggrecan G1-IGD-G2 (manufactured by R&D systems) diluted with Basal Medium as a substrate was added. The aptamer was added simultaneously with the substrate to the samples to be evaluated for inhibition by the aptamer. The cells were kept cultured and the culture supernatant was collected after 3 days. The added substrate is cleaved during culture by substrate-cleaving enzymes such as ADAMTS5 secreted from the HFLS-OA cells. The amount of the cleaved substrate fragment contained in the culture supernatant was quantified by the ELISA method described in Example 5. The substrate cleavage efficiency in this evaluation system was 1-8%. The nucleic acid shown in SEQ ID NO: 15 was used as a negative control.

With “15 (AUUGGCACGGAGACAGCGCUCGCUUCUCGAUCACCAAU; listed as RNA, chemistry not given here) [compound 15]” the “inhibitory activity (%) evaluation method 2” value [1] was 16.5%, the “inhibition rate (%) 3 nM” value ([2]; 3 nM aptamer) was 10% and the “inhibition rate (%) 30 nM” value ([2]; 30 nM aptamer) was 8%. For the same substance, the “inhibition rate (%) 300 nM” value ([2]; 300 nM aptamer) was 37%.
